Laboratory results reported in patent US8835440B2, “Cyclic pyrimidin-4-carboxamides as CCR2 receptor antagonists for treatment of inflammation, asthma and COPD” (Boehringer Ingelheim International GmbH, priority 2008, dated 2014).

Biological target: T1, CCR2 (Homo sapiens, UniProt P41597)
T1 construct: Membranes were prepared from THP-1 cells; endogenous in cells; host or cells: THP-1 cells (membrane preparation)
T1 sequence (P41597 1-360 isoform P41597-2): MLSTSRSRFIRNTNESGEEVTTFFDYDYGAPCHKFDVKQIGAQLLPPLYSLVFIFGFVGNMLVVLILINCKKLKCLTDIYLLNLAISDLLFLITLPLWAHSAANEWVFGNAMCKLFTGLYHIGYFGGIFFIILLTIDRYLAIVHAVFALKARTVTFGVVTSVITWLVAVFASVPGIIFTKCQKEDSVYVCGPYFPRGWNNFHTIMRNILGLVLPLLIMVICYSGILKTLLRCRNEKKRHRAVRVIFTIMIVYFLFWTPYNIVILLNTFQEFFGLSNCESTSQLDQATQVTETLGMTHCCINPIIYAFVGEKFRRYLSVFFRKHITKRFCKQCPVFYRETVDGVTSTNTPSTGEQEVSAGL
Assay: CCR2 receptor membrane binding assay ([125I]MCP-1, THP-1 cell membranes, SPA beads)
Settings: for Ki: dissociation constant hKi, [125I]MCP-1 binding to THP-1 membranes; for remaining activity at 10 µM: @ 10 μM test compound, THP-1 membranes, read-out: CCR2 % ctrl @ 10 μM
Procedure, shortened: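 Human THP-1 monocytic cell membranes, pre-coupled to WGA-PVT SPA beads, were incubated with compound and [125I]MCP-1 (ca. 25000 cpm) in 25 mM HEPES pH 7.2, 5 mM MgCl2, 0.5 mM CaCl2, 0.2% BSA, at 1% DMSO final. Bound radioactivity was counted after 8 h, and Ki was obtained by iterative mass-action fitting.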

Ki	remaining activity at 10 µM	SMILES
0.033 µM		CO[C@@H]1COCC[C@@H]1NC1CCN(C(=O)c2ncnc(NC[C@@H]3CCC[C@H](c4ccc(C)o4)C3)c2C)CC1 [Example 275db]
0.011 µM		CO[C@@H]1COCC[C@@H]1NC1CCN(C(=O)c2nc(C)nc(NC[C@H]3C[C@@H](c4ccccc4)C3)c2C)CC1 [Example 275dc]
0.04 µM		CO[C@H]1COCC[C@H]1NC1CCN(C(=O)c2ncnc(NC[C@H]3C[C@@H](c4ccccc4)C3)c2C)CC1 [Example 275dd]
0.016 µM		CO[C@@H]1COCC[C@@H]1NC1CCN(C(=O)c2nc(C)nc(NC[C@H]3C[C@H](c4ccccc4)C3)c2C)CC1 [Example 275de]
0.015 µM		CO[C@@H]1COCC[C@@H]1NC1CCN(C(=O)c2ncnc(NC[C@H]3C[C@H](c4ccccc4)C3)c2C)CC1 [Example 275df]
0.012 µM		CO[C@@H]1COCC[C@@H]1NC1CCN(C(=O)c2ncnc(NC[C@H]3C[C@@H](c4ccccc4)C3)c2C)CC1 [Example 275dg]
0.003 µM		CO[C@H]1COCC[C@H]1NC1CCN(C(=O)c2ncnc(NC[C@H]3CCC[C@@H](c4ccccc4)C3)c2C)CC1 [Example 275dh]
0.001 µM		CO[C@@H]1COCC[C@@H]1NC1CCN(C(=O)c2ncnc(NC[C@H]3CCC[C@@H](c4ccccc4)C3)c2C)CC1 [Example 275di]
0.004 µM		COC1COCCC1N(C)C1CCN(C(=O)c2ncnc(NC[C@H]3CCC[C@@H](c4ccccc4)C3)c2C)CC1 (stereo partly shown) [Example 275dj]
0.017 µM		C=Cc1c(NC[C@H]2CCC[C@@H](c3ccccc3)C2)ncnc1C(=O)N1CCC(N2CCC(N(C)S(C)(=O)=O)CC2)CC1 [Example 275dk]
0.372 µM		C#Cc1c(NC[C@H]2CCC[C@@H](c3ccccc3)C2)ncnc1C(=O)N1CCC(N2CCC(N(C)S(C)(=O)=O)CC2)CC1 [Example 275dl]
1.84 µM	23%	CCc1c(NCc2cccc(-c3ccccc3)c2)ncnc1C(=O)N1CCC(N2CCOCC2)CC1 [Example 276]
1.38 µM	34%	O=C(c1ncnc(NCc2cccc(-c3ccccc3)c2)c1Br)N1CCC(N2CCOCC2)CC1 [Example 277]
1.08 µM	32%	O=C(c1ncnc(NCc2cccc(-c3ccccc3)c2)c1Br)N1CCC(N2CCC(O)CC2)CC1 [Example 278]
0.192 µM	9%	Cc1c(NCCc2ccc(Cl)c(Cl)c2)ncnc1C(=O)N1CCC(N2CCOCC2)CC1 [Example 279]
1.44 µM	32%	CCc1c(NCCc2ccc(Cl)c(Cl)c2)ncnc1C(=O)N1CCC(N2CCC(O)CC2)CC1 [Example 280]
1.01 µM	24%	CCc1c(NCCc2ccc(Cl)c(Cl)c2)ncnc1C(=O)N1CCC(N2CCOCC2)CC1 [Example 281]
1.53 µM	39%	CCc1c(NCc2cccc(-c3ccccc3)c2)ncnc1C(=O)N1CCC(N2CCC(O)CC2)CC1 [Example 282]

Ki	remaining activity at 10 µM	SMILES
4.42 µM	48%	Cc1c(NCc2cccc(-c3ccccc3)c2)cccc1C(=O)N1CCC(N2CCC(O)CC2)CC1 [Example 283]
1.51 µM	42%	Cc1c(NCCc2ccc(Cl)c(Cl)c2)ncnc1C(=O)N1CCC(N2CCN(C(=O)C(C)C)CC2)CC1 [Example 284]
1.31 µM	35%	Cc1c(NCCc2ccc(Cl)c(Cl)c2)ncnc1C(=O)N1CCC(N2CCN(S(C)(=O)=O)CC2)CC1 [Example 285]
0.965 µM	19%	Cc1c(NCc2ccc(C(C)(C)C)cc2)ncnc1C(=O)N1CCCN(C2CCCC2)CC1 [Example 286]
2.55 µM	33%	Cc1c(NCc2ccc(C(C)(C)C)cc2)ncnc1C(=O)N1CCCN(C(C)C)CC1 [Example 287]
0.738 µM	13%	Cc1c(NCc2ccc(C(C)(C)C)cc2)ncnc1C(=O)N1CCCN(C2CCOCC2)CC1 [Example 288]
1.67 µM	34%	Cc1c(C(=O)N2CCC(N3CCC(N(C)S(C)(=O)=O)CC3)CC2)ncnc1-c1ccc(C(C)(C)C)cc1 [Example 289]
1.6 µM	28%	Cc1c(Oc2ccc(Cl)cc2)ncnc1C(=O)N1CCC(N2CCC(N(C)S(C)(=O)=O)CC2)CC1 [Example 290]
0.136 µM	15%	Cc1cc(COc2ncnc(C(=O)N3CCC(N4CCC(N(C)S(C)(=O)=O)CC4)CC3)c2C)ccc1Cl [Example 292]
0.717 µM	27%	Cc1c(OCc2ccc(C#N)cc2)ncnc1C(=O)N1CCC(N2CCC(N(C)S(C)(=O)=O)CC2)CC1 [Example 293]
0.23 µM	16%	Cc1ccc(COc2ncnc(C(=O)N3CCC(N4CCC(N(C)S(C)(=O)=O)CC4)CC3)c2C)cc1F [Example 294]
0.14 µM	0%	Cc1c(OCC2CCN(c3ccccc3)C2)ncnc1C(=O)N1CCC(N2CCC(N(C)S(C)(=O)=O)CC2)CC1 (stereo not shown) [Example 295]
0.069 µM	3%	Cc1c(OCc2ccc(C(C)(C)C)cc2)ncnc1C(=O)N1CCC(N2CCC(N(C)S(C)(=O)=O)CC2)CC1 [Example 296]
0.599 µM	17%	Cc1c(OCc2ccc(C(C)(C)C)cc2)ncnc1C(=O)N1CCC(N2CCOCC2)CC1 [Example 298]
0.07 µM	6%	Cc1c(OCc2ccc(C(C)(C)C)cc2)ncnc1C(=O)N1CCC(N2CCC(NS(C)(=O)=O)CC2)CC1 [Example 299]
0.136 µM	8%	CNC(=O)C1CCN(C2CCN(C(=O)c3ncnc(OCc4ccc(C(C)(C)C)cc4)c3C)CC2)CC1 [Example 300]
0.022 µM		COc1nc(OCc2ccc(C(C)(C)C)cc2)c(C)c(C(=O)N2CCC(N3CCC(N(C)S(C)(=O)=O)CC3)CC2)n1 [Example 301]
0.032 µM		COc1nc(OCC2CCCC(c3ccccc3)C2)c(C)c(C(=O)N2CCC(N3CCC(N(C)S(C)(=O)=O)CC3)CC2)n1 (stereo not shown) [Example 302]

SMILES	Ki	remaining activity at 10 µM
Cc1c(Oc2ccc(C(C)(C)C)cc2)ncnc1C(=O)N1CCC(N2CCC(N(C)S(C)(=O)=O)CC2)CC1 [Example 291]	3.12 µM	32%
